Measurements as given in ChEMBL document CHEMBL4229379, “Synthesis and structure-activity relationship of novel bisindole amidines active against MDR Gram-positive and Gram-negative bacteria” (Eur J Med Chem, 2018).
In brackets after ≈: the same amount, converted by molar mass.

How the values were obtained:
Klebsiella pneumoniae [1] = experiment: Antibacterial activity against extended-spectrum beta-lactamase harboring Klebsiella pneumoniae 12-8 after 18 hrs by CLSI broth microdilution method; format: functional; settings: 12-8, 18 h
Klebsiella pneumoniae [2] = experiment: Antibacterial activity against extended-spectrum beta-lactamase deficient Klebsiella pneumoniae 7 after 18 hrs by CLSI broth microdilution method; format: functional; settings: Klebsiella pneumoniae, 7, 18 h
Serratia marcescens = experiment: Antibacterial activity against Serratia marcescens ATCC 21074 after 18 hrs by CLSI broth microdilution method; format: functional; settings: ATCC 21074, 18 h
Escherichia coli [3] = experiment: Antibacterial activity against extended-spectrum beta-lactamase deficient Escherichia coli 1515 after 18 hrs by CLSI broth microdilution method; format: functional; settings: Escherichia coli, 1515, 18 h
Staphylococcus aureus [4] = experiment: Antibacterial activity against methicillin-sensitive Staphylococcus aureus ATCC 29213 after 18 hrs by CLSI broth microdilution method; format: functional; settings: ATCC 29213, 18 h
Enterococcus faecium [5] = experiment: Antibacterial activity against vancomycin-resistant Enterococcus faecium ATCC 700221 after 18 hrs by CLSI broth microdilution method; format: functional; settings: ATCC 700221, 18 h
Pseudomonas aeruginosa [6] = experiment: Antibacterial activity against Pseudomonas aeruginosa PAO1 after 18 hrs by CLSI broth microdilution method; format: functional; settings: PAO1, 18 h
Proteus mirabilis = experiment: Antibacterial activity against Proteus mirabilis 12-6 after 18 hrs by CLSI broth microdilution method; format: functional; settings: 12-6, 18 h
Enterobacter cloacae = experiment: Antibacterial activity against Enterobacter cloacae ATCC 43560 after 18 hrs by CLSI broth microdilution method; format: functional; settings: ATCC 43560, 18 h
[7] = system: Stenotrophomonas maltophilia; experiment: Antibacterial activity against Stenotrophomonas maltophilia ATCC 13636 after 18 hrs by CLSI broth microdilution method; format: functional; settings: ATCC 13636, 18 h
Enterococcus faecalis [8] = experiment: Antibacterial activity against vancomycin-sensitive Enterococcus faecalis ATCC 29212 after 18 hrs by CLSI broth microdilution method; format: functional; settings: ATCC 29212, 18 h
[9] = Cytotoxicity against HEK293T cells assessed as reduction in cell viability after 48 hrs by MTS assay; format: cell-based, HEK-293T; settings: human
[10] = system: Staphylococcus epidermidis; experiment: Antibacterial activity against methicillin-sensitive Staphylococcus epidermidis ATCC 12228 after 18 hrs by CLSI broth microdilution method; format: functional; settings: ATCC 12228, 18 h
Staphylococcus aureus [11] = experiment: Antibacterial activity against methicillin-sensitive Staphylococcus aureus 12-28 after 18 hrs by CLSI broth microdilution method; format: functional; settings: 12-28, 18 h
[12] = system: Staphylococcus epidermidis; experiment: Antibacterial activity against methicillin-resistant Staphylococcus epidermidis 12-8 after 18 hrs by CLSI broth microdilution method; format: functional; settings: 12-8, 18 h
Klebsiella pneumoniae [13] = experiment: Antibacterial activity against new delhi metallo-beta-lactamase-1 harboring Klebsiella pneumoniae ATCC BAA-2146 after 18 hrs by CLSI broth microdilution method; format: functional; settings: ATCC BAA-2146, 18 h
Providencia rettgeri = experiment: Antibacterial activity against Providencia rettgeri ATCC 31052 after 18 hrs by CLSI broth microdilution method; format: functional; settings: ATCC 31052, 18 h
Pseudomonas aeruginosa [14] = experiment: Antibacterial activity against Pseudomonas aeruginosa 12-16 after 18 hrs by CLSI broth microdilution method; format: functional; settings: 12-16, 18 h
Escherichia coli [15] = experiment: Antibacterial activity against extended-spectrum beta-lactamase deficient Escherichia coli ATCC 25922 after 18 hrs by CLSI broth microdilution method; format: functional; settings: ATCC 25922, 18 h
[16] = system: Acinetobacter calcoaceticus; experiment: Antibacterial activity against Acinetobacter calcoaceticus ATCC 19606 after 18 hrs by CLSI broth microdilution method; format: functional; settings: ATCC 19606, 18 h
Escherichia coli [17] = experiment: Antibacterial activity against extended-spectrum beta-lactamase harboring Escherichia coli 12-15 after 18 hrs by CLSI broth microdilution method; format: functional; settings: 12-15, 18 h
Klebsiella aerogenes = experiment: Antibacterial activity against Enterobacter aerogenes ATCC 13048 after 18 hrs by CLSI broth microdilution method; format: functional; settings: ATCC 13048, 18 h
Proteus vulgaris = experiment: Antibacterial activity against Proteus vulgaris ATCC 29905 after 18 hrs by CLSI broth microdilution method; format: functional; settings: ATCC 29905, 18 h
Enterococcus faecalis [18] = experiment: Antibacterial activity against vancomycin-resistant Enterococcus faecalis 09-9 after 18 hrs by CLSI broth microdilution method; format: functional; settings: 09-9, 18 h
Staphylococcus aureus [19] = experiment: Antibacterial activity against methicillin-sensitive Staphylococcus aureus 15 after 18 hrs by CLSI broth microdilution method; format: functional; settings: Staphylococcus aureus, 15, 18 h
Enterococcus faecalis [20] = experiment: Antibacterial activity against vancomycin-sensitive Enterococcus faecalis 12-5 after 18 hrs by CLSI broth microdilution method; format: functional; settings: 12-5, 18 h
Klebsiella pneumoniae [21] = experiment: Antibacterial activity against extended-spectrum beta-lactamase deficient Klebsiella pneumoniae 12-4 after 18 hrs by CLSI broth microdilution method; format: functional; settings: 12-4, 18 h
Enterococcus faecalis [22] = experiment: Antibacterial activity against vancomycin-resistant Enterococcus faecalis ATCC 51299 after 18 hrs by CLSI broth microdilution method; format: functional; settings: ATCC 51299, 18 h
Escherichia coli [23] = experiment: Antibacterial activity against extended-spectrum beta-lactamase deficient Escherichia coli 12-14 after 18 hrs by CLSI broth microdilution method; format: functional; settings: 12-14, 18 h
Klebsiella pneumoniae [24] = experiment: Antibacterial activity against extended-spectrum beta-lactamase harboring Klebsiella pneumoniae ATCC 700603 after 18 hrs by CLSI broth microdilution method; format: functional; settings: Klebsiella pneumoniae, 700603, 18 h
[25] = system: Staphylococcus epidermidis; experiment: Antibacterial activity against methicillin-sensitive Staphylococcus epidermidis 12-6 after 18 hrs by CLSI broth microdilution method; format: functional; settings: 12-6, 18 h
Enterococcus faecium [26] = experiment: Antibacterial activity against vancomycin-sensitive Enterococcus faecium 12-3 after 18 hrs by CLSI broth microdilution method; format: functional; settings: 12-3, 18 h
Citrobacter freundii = experiment: Antibacterial activity against Citrobacter freundii ATCC 43864 after 18 hrs by CLSI broth microdilution method; format: functional; settings: ATCC 43864, 18 h
Staphylococcus aureus [27] = experiment: Antibacterial activity against methicillin-resistant Staphylococcus aureus ATCC 33591 after 18 hrs by CLSI broth microdilution method; format: functional; settings: ATCC 33591, 18 h
Staphylococcus aureus [28] = experiment: Antibacterial activity against methicillin-resistant Staphylococcus aureus 12-33 after 18 hrs by CLSI broth microdilution method; format: functional; settings: 12-33, 18 h
Pseudomonas aeruginosa [29] = experiment: Antibacterial activity against Pseudomonas aeruginosa ATCC 27853 after 18 hrs by CLSI broth microdilution method; format: functional; settings: ATCC 27853, 18 h
Enterococcus faecium [30] = experiment: Antibacterial activity against vancomycin-resistant Enterococcus faecium 12-1 after 18 hrs by CLSI broth microdilution method; format: functional; settings: 12-1, 18 h

| Compound | MIC (Klebsiella pneumoniae [1]) [µg/mL] | MIC (Klebsiella pneumoniae [2]) [µg/mL] | MIC (Serratia marcescens) [µg/mL] | MIC (Escherichia coli [3]) [µg/mL] | MIC (Staphylococcus aureus [4]) [µg/mL] | MIC (Enterococcus faecium [5]) [µg/mL] | MIC (Pseudomonas aeruginosa [6]) [µg/mL] | MIC (Proteus mirabilis) [µg/mL] | MIC (Enterobacter cloacae) [µg/mL] | MIC [7] [µg/mL] | MIC (Enterococcus faecalis [8]) [µg/mL] | CC50 at 48 h [9] [µg/mL] | MIC [10] [µg/mL] | MIC (Staphylococcus aureus [11]) [µg/mL] | MIC [12] [µg/mL] | MIC (Klebsiella pneumoniae [13]) [µg/mL] | MIC (Providencia rettgeri) [µg/mL] | MIC (Pseudomonas aeruginosa [14]) [µg/mL] | MIC (Escherichia coli [15]) [µg/mL] | MIC [16] [µg/mL] | further results |
| --- | --- | --- | --- | --- | --- | --- | --- | --- | --- | --- | --- | --- | --- | --- | --- | --- | --- | --- | --- | --- | --- |
| CC(C)NC(=N)c1ccc2cc(-c3cncc(-c4cc5ccc(C(=N)NC(C)C)cc5[nH]4)c3)[nH]c2c1 | > 64 | > 64 | > 64 | > 64 | 8 (≈ 16.7 µM) | > 64 | > 64 | > 64 | > 64 | > 64 | > 64 | 26.5 (≈ 55.4 µM) | 8 (≈ 16.7 µM) | 16 (≈ 33.5 µM) | 8 (≈ 16.7 µM) | > 64 | > 64 | > 64 | > 64 | > 64 | MIC (Escherichia coli [17]): > 64 µg/mL; MIC (Klebsiella aerogenes): > 64 µg/mL; MIC (Proteus vulgaris): > 64 µg/mL; MIC (Enterococcus faecalis [18]): > 64 µg/mL; MIC (Staphylococcus aureus [19]): 16 µg/mL (≈ 33.5 µM); MIC (Enterococcus faecalis [20]): > 64 µg/mL; MIC (Klebsiella pneumoniae [21]): > 64 µg/mL; MIC (Enterococcus faecalis [22]): > 64 µg/mL; MIC (Escherichia coli [23]): > 64 µg/mL; MIC (Klebsiella pneumoniae [24]): > 64 µg/mL; MIC [25]: 2 µg/mL (≈ 4.19 µM); MIC (Enterococcus faecium [26]): > 64 µg/mL; MIC (Citrobacter freundii): > 64 µg/mL; MIC (Staphylococcus aureus [27]): 16 µg/mL (≈ 33.5 µM); MIC (Staphylococcus aureus [28]): 32 µg/mL (≈ 67 µM); MIC (Pseudomonas aeruginosa [29]): > 64 µg/mL; MIC (Enterococcus faecium [30]): > 64 µg/mL |
| N=C(c1ccc2cc(-c3ccc(-c4cc5ccc(C(=N)N6CC=CC6)cc5[nH]4)cc3)[nH]c2c1)N1CC=CC1 | 16 (≈ 32.2 µM) | 8 (≈ 16.1 µM) | > 128 | 16 (≈ 32.2 µM) | 4 (≈ 8.05 µM) | 16 (≈ 32.2 µM) | > 128 | 64 (≈ 129 µM) | 8 (≈ 16.1 µM) | 32 (≈ 64.4 µM) | 8 (≈ 16.1 µM) | 12.4 (≈ 24.9 µM) | 1 (≈ 2.01 µM) | 4 (≈ 8.05 µM) | 4 (≈ 8.05 µM) | 8 (≈ 16.1 µM) | 16 (≈ 32.2 µM) | > 128 | 8 (≈ 16.1 µM) | 32 (≈ 64.4 µM) | MIC (Escherichia coli [17]): 8 µg/mL (≈ 16.1 µM); MIC (Klebsiella aerogenes): 8 µg/mL (≈ 16.1 µM); MIC (Proteus vulgaris): 32 µg/mL (≈ 64.4 µM); MIC (Enterococcus faecalis [18]): 8 µg/mL (≈ 16.1 µM); MIC (Staphylococcus aureus [19]): 4 µg/mL (≈ 8.05 µM); MIC (Enterococcus faecalis [20]): 8 µg/mL (≈ 16.1 µM); MIC (Klebsiella pneumoniae [21]): 16 µg/mL (≈ 32.2 µM); MIC (Enterococcus faecalis [22]): 8 µg/mL (≈ 16.1 µM); MIC (Escherichia coli [23]): 16 µg/mL (≈ 32.2 µM); MIC (Klebsiella pneumoniae [24]): 32 µg/mL (≈ 64.4 µM); MIC [25]: 2 µg/mL (≈ 4.03 µM); MIC (Enterococcus faecium [26]): 16 µg/mL (≈ 32.2 µM); MIC (Citrobacter freundii): 8 µg/mL (≈ 16.1 µM); MIC (Staphylococcus aureus [27]): 2 µg/mL (≈ 4.03 µM); MIC (Staphylococcus aureus [28]): 4 µg/mL (≈ 8.05 µM); MIC (Pseudomonas aeruginosa [29]): > 128 µg/mL; MIC (Enterococcus faecium [30]): 16 µg/mL (≈ 32.2 µM) |
| CN(C)C(=N)c1ccc2cc(-c3cccc(-c4cc5ccc(C(=N)N(C)C)cc5[nH]4)c3)[nH]c2c1 | > 128 | > 128 | > 128 | 64 (≈ 143 µM) | 8 (≈ 17.8 µM) | 16 (≈ 35.7 µM) | > 128 | > 128 | > 128 | > 128 | 64 (≈ 143 µM) | 52.2 (≈ 116 µM) | 8 (≈ 17.8 µM) | 4 (≈ 8.92 µM) | 16 (≈ 35.7 µM) | > 128 | 128 (≈ 285 µM) | > 128 | 64 (≈ 143 µM) | > 128 | MIC (Escherichia coli [17]): 64 µg/mL (≈ 143 µM); MIC (Klebsiella aerogenes): > 128 µg/mL; MIC (Proteus vulgaris): > 128 µg/mL; MIC (Enterococcus faecalis [18]): 64 µg/mL (≈ 143 µM); MIC (Staphylococcus aureus [19]): 4 µg/mL (≈ 8.92 µM); MIC (Enterococcus faecalis [20]): > 128 µg/mL; MIC (Klebsiella pneumoniae [21]): > 128 µg/mL; MIC (Enterococcus faecalis [22]): 128 µg/mL (≈ 285 µM); MIC (Escherichia coli [23]): 64 µg/mL (≈ 143 µM); MIC (Klebsiella pneumoniae [24]): > 128 µg/mL; MIC [25]: 32 µg/mL (≈ 71.3 µM); MIC (Enterococcus faecium [26]): > 128 µg/mL; MIC (Citrobacter freundii): > 128 µg/mL; MIC (Staphylococcus aureus [27]): 4 µg/mL (≈ 8.92 µM); MIC (Staphylococcus aureus [28]): 8 µg/mL (≈ 17.8 µM); MIC (Pseudomonas aeruginosa [29]): > 128 µg/mL; MIC (Enterococcus faecium [30]): 8 µg/mL (≈ 17.8 µM) |
